Experimental data published in US20050124021A1 (priority 2000, published 2005).
Entries after “also recorded” stand apart in the source; their conditions may differ.

What was measured:
M. smegmatis mutant 49 = type: cell-based
[1] = molecular target: T1, M. tuberculosis MshB (Rv1170) (Mycobacterium tuberculosis, UniProt P9WJN3); type: biochemical; details: for Deacetylase Specific Activity: pH 7.4
His-tagged MshB [2] = molecular target: T2, His-tagged MshB (Mycobacterium tuberculosis, UniProt P9WJN3); type: biochemical, M. tuberculosis
T2 sequence (P9WJN3 whole entry, looked up): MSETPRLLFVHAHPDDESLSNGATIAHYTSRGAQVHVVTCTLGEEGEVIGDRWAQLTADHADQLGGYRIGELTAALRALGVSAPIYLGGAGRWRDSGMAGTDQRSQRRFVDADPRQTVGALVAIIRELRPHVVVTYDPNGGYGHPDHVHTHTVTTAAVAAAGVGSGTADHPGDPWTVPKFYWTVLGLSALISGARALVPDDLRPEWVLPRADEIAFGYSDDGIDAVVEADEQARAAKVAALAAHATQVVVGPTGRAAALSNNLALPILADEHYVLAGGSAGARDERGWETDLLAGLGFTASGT

His-tagged MshB [3] = molecular target: T2, His-tagged MshB; type: biochemical, M. tuberculosis; remark: listed apart in the source
[4] = molecular target: T1, M. tuberculosis MshB (Rv1170); type: biochemical
[5] = tested on: M. smegmatis strain 49::H37Rv A18; details: read-out: H2O2 IC50; cited from earlier work
M. smegmatis strain 49 [6] = details: read-out: H2O2 IC50; cited from earlier work
M. smegmatis strain 49 [7] = tested on: M. smegmatis strain 49
M. smegmatis mc^2155 [8] = details: read-out: H2O2 IC50
[9] = molecular target: recombinant MshB (Rv1170) (Mycobacterium tuberculosis, UniProt P9WJN3); type: biochemical, M. tuberculosis
Chain of recombinant MshB (Rv1170) (P9WJN3 whole entry, looked up): as above

M. smegmatis mc^2155 [10] = type: cell-based
[11] = tested on: M. smegmatis chemical mutant 164; type: cell-based
M. smegmatis mutant TN3 = type: cell-based

T1 sequence (P9WJN3 whole entry, looked up): as above

## O[C@H]1[C@H](O)[C@@H](O)[C@H](O)[C@@H](O)[C@H]1O [inositol]
M. smegmatis mutant 49
  MSH found in cells: No significant MSH

## CC(=O)N[C@H]1C(O)O[C@H](CO)[C@@H](O)[C@@H]1O (stereo partly shown) [GlcNAc, N-acetylglucosamine]
M. smegmatis mutant 49
  MSH found in cells: No significant MSH
[1]
  Fold less active than GlcNAc-Ins as deacetylase substrate: 44 fold
  Relative Rate (deacetylase reaction): 0.023
  Deacetylase Specific Activity: 1.6 ± 1 nmol/min/mg

## CC(=O)N[C@@H](CS)C(=O)N[C@H]1[C@@H](OC2[C@H](O)[C@H](O)C(O)[C@H](O)[C@H]2O)O[C@H](CO)[C@@H](O)[C@@H]1O (stereo partly drawn) [MSH, 1-D-myo-inosityl-2-(N-acetylcysteinyl)amido-2-deoxy-α-D-glucopyranoside]
His-tagged MshB [2]
  Inhibition of the deacetylase activity: effective inhibitor
[1]
  Relative Rate (deacetylase reaction): <0.00036
  Substrate quality for the deacetylase activity: not substrates
  Deacetylase Specific Activity: <0.025 ± 0.012 nmol/min/mg
His-tagged MshB [3]
  Concentration that completely inhibits the amidase activity: over 1 mM
  Inhibition of the amidase activity: effective inhibitor
[4]
  Relative Rate (amidase reaction): 0.0043
[4]; pH 7.4
  Amidase Specific Activity: 0.3 ± 0.1 nmol/min/mg

## N[C@@H](CCC(=O)N[C@@H](CS)C(=O)NCC(=O)O)C(=O)O [glutathione]
His-tagged MshB [2]
  Inhibition of the deacetylase activity: lack of inhibition
His-tagged MshB [3]
  Inhibition of the amidase activity: lack of inhibition

## N[C@H]1C(O)O[C@H](CO)[C@@H](O)[C@@H]1O (stereo partly shown) [glucosamine]
M. smegmatis mutant 49
  MSH found in cells: No significant MSH

## OO [H2O2, hydrogen peroxide]
[5]
  IC50: 1.8 mM
M. smegmatis strain 49 [6]
  IC50: 1 mM
M. smegmatis strain 49 [7]
  Fold more sensitive to H2O2 than the parent strain: 12 fold
M. smegmatis strain TN3
  Fold more sensitive to H2O2 than the parent strain: > 20 fold
M. smegmatis strain TN3; read-out: H2O2 IC50
  IC50: 0.5 mM
M. smegmatis strain I64
  Sensitivity to peroxide versus the parent strain: three-fold more sensitive
M. smegmatis strain I64; read-out: H2O2 IC50
  IC50: 3.5 mM
M. smegmatis mc^2155 [8]
  IC50: 12 mM

## c1cnc2c(c1)ccc1cccnc12 [1,10-phenanthroline]
[9]
  Inhibition of the deacetylase reaction: substantially inhibited; also recorded: completely inhibited

## superoxide
M. smegmatis mc^2155 [10]
  Killing by superoxide: no significant killing
[11]
  Killing by superoxide: intermediate level of killing
M. smegmatis mutant TN3
  Killed by superoxide: > 90%
